Structures can show the parent of a compound that is named as a salt. Where two headings read alike, the source gives them in different places.
Columns and labels:
[1] = for Solubility: in water, room temperature, hydrochloride
[2] = long term studies; birefringence under polarized light microscope
Description: The presence of the amorphous form of a compound of formula I was determined by observing the material under a polarized light microscope, and determining if the material was birefringent. If no birefringence was observed, the material was considered to be amorphous.
The amorphous material was also made as a complex with povidone, with ratios of raloxifene HCl to PVP as follows: 9:1, 3:1, and 1:1 (w/w). Complexes with hydroxypropyl-β-cyclodextrin (HPBCD) were also prepared, with a ratio of raloxifene HCl to HPBCD of from 1:1 to 1:4 (w/w).

[3] = physchem; conditions: water, 37 °C, thermodynamic from solid, in water, in sonicator
[4] = Bioavailability study: plasma levels in dogs; assay type: in vivo; conditions: 4 mg/kg, PEG vehicle, plasma levels over a 10 hour period, amorphous vs crystalline form
Description: The extent and rate of absorption of the crystalline and amorphous forms of raloxifene HCl was determined. The two forms of the compound were formulated in a PEG vehicle as follows: […]
Six dogs were dosed as follows: three dogs received the amorphous form, while three dogs received the crystalline form, both at a dose of 4 mg/kg. Plasma levels of the two compound forms were then determined over a 10 hour period.

Solubility of the amorphous form relative to the crystalline form ([1]; amorphous vs crystalline form)	Solubility [1] [mg/mL]	Stability of the amorphous form [2]	Solubility [3] [mg/mL]	Bioavailability (plasma levels) [4]	SMILES
approximately 250 times	42.2	very stable	120	greater bioavailability	O=C(c1ccc(OCCN2CCCCC2)cc1)c1c(-c2ccc(O)cc2)sc2cc(O)ccc12 [amorphous, raloxifene hydrochloride]
	0.08				O=C(c1ccc(OCCN2CCCCC2)cc1)c1c(-c2ccc(O)cc2)sc2cc(O)ccc12 [crystalline, raloxifene hydrochloride, reference compound]
